According to the NIST ThermoML archive (doi:10.1021/je800416y):

Experiments:
[1] = xn = mol fraction of the nth substance listed; conditions: 101 kPa, Liquid
[2] = wn = mass fraction of the nth substance listed; conditions: 101 kPa, Liquid

CN(CCO)CCO [N-methyldiethanolamine] + O
mass density [kg/m3]
Conditions | 298.15 K | 303.15 K | 308.15 K | 313.15 K | 318.15 K | 323.15 K | 328.15 K | 333.15 K | 338.15 K
[1], x1 = 0.0128 | 1004.06 | 1002.48 | 1000.7 | 998.731 | 996.584 | 994.273 | 991.808 | 989.191 | 986.433
[1], x1 = 0.0212 | 1008.41 | 1006.7 | 1004.8 | 1002.72 | 1000.48 | 998.073 | 995.518 | 992.82 | 989.984
[1], x1 = 0.0498 | 1020.08 | 1017.93 | 1015.63 | 1013.18 | 1010.59 | 1007.87 | 1005.02 | 1002.04 | 998.939
[1], x1 = 0.0645 | 1026.39 | 1023.98 | 1021.43 | 1018.77 | 1015.98 | 1013.06 | 1010.03 | 1006.73 | 1003.61
[1], x1 = 0.0799 | 1030.85 | 1028.25 | 1025.53 | 1022.69 | 1019.74 | 1016.68 | 1013.51 | 1010.24 | 1006.85
[1], x1 = 0.1332 | 1042.8 | 1039.65 | 1036.42 | 1033.1 | 1029.71 | 1026.23 | 1022.67 | 1019.02 | 1015.29
[1], x1 = 0.1557 | 1045.44 | 1042.17 | 1038.83 | 1035.41 | 1031.92 | 1028.34 | 1024.69 | 1020.96 | 1017.15
[1], x1 = 0.1944 | 1049.91 | 1046.42 | 1042.86 | 1039.23 | 1035.54 | 1031.78 | 1027.97 | 1024.08 | 1020.13
[1], x1 = 0.2407 | 1050.84 | 1048.11 | 1044.45 | 1040.73 | 1036.95 | 1033.11 | 1029.25 | 1025.29 | 1021.29
[1], x1 = 0.2725 | 1052.41 | 1048.8 | 1045.14 | 1041.41 | 1037.63 | 1033.74 | 1029.77 | 1025.95 | 1021.9
[1], x1 = 0.366 | 1052.54 | 1048.78 | 1044.97 | 1041.1 | 1037.2 | 1033.24 | 1029.24 | 1025.2 | 1021.1
[1], x1 = 0.4302 | 1050.97 | 1047.2 | 1043.38 | 1039.51 | 1035.6 | 1031.66 | 1027.68 | 1023.66 | 1019.6
[1], x1 = 0.5642 | 1046.85 | 1043.08 | 1039.28 | 1035.45 | 1031.61 | 1027.75 | 1023.83 | 1019.88 | 1015.88
[1], x1 = 0.6687 | 1041.44 | 1037.68 | 1033.89 | 1030.08 | 1026.25 | 1022.4 | 1018.52 | 1014.62 | 1010.7
[1], x1 = 0.7531 | 1039.27 | 1035.87 | 1031.92 | 1028.73 | 1025.02 | 1020.86 | 1016.84 | 1012.83 | 1008.96
[2], w1 = 0.3228 | 1027.27 | 1024.82 | 1022.16 | 1019.44 | 1016.54 | 1013.63 | 1010.47 | 1007.39 | 1003.91
[2], w1 = 0.488 | 1041.37 | 1038.16 | 1034.94 | 1031.74 | 1028.35 | 1024.83 | 1021.38 | 1017.75 | 1014.17
